In ChEMBL document CHEMBL1201862, “PubChem BioAssay data set” (2004):
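Following 48 hours of exposure in 96-well plates, responses at five concentrations were used to interpolate endpoints linearly. GI50 is the concentration that inhibits growth by half.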 Calls of active or inactive are those of the source. No stated cut-off is given here; in the data, active = GI50 up to about 1.1 µM and inactive = higher.

Columns and labels:
Assay in all cases: inhibition of tumour cell growth, NCI panel, 48 h
786-0 = tested on: 786-0
A498 = tested on: A498
A549 = tested on: A549
ACHN = tested on: ACHN
CAKI-1 = tested on: CAKI-1
CCRF-CEM = tested on: CCRF-CEM
COLO 205 = tested on: COLO 205
DLD-1 = tested on: DLD-1
DMS-114 = tested on: DMS-114
DMS-273 = tested on: DMS-273
EKVX = tested on: EKVX
HCC 2998 = tested on: HCC 2998
HCT-116 = tested on: HCT-116
HL-60 = tested on: HL-60
HOP-18 = tested on: HOP-18
HOP-62 = tested on: HOP-62
HOP-92 = tested on: HOP-92
HT-29 = tested on: HT-29
IGROV-1 = tested on: IGROV-1
K562 = tested on: K562
KM-20L2 = tested on: KM-20L2
KM12 = tested on: KM12
LOX IMVI = tested on: LOX IMVI
LXFL 529 = tested on: LXFL 529
M14 = tested on: M14
M19-MEL = tested on: M19-MEL
MOLT-4 = tested on: MOLT-4
Malme-3M = tested on: Malme-3M
NCI-H226 = tested on: NCI-H226
NCI-H23 = tested on: NCI-H23
NCI-H522 = tested on: NCI-H522
OVCAR-3 = tested on: OVCAR-3
OVCAR-4 = tested on: OVCAR-4
OVCAR-5 = tested on: OVCAR-5
OVCAR-8 = tested on: OVCAR-8
RXF 393 = tested on: RXF 393
RXF 631 = tested on: RXF 631
SF-268 = tested on: SF-268
SF-295 = tested on: SF-295
SF-539 = tested on: SF-539
SK-MEL-28 = tested on: SK-MEL-28
SK-MEL-2 = tested on: SK-MEL-2
SK-MEL-5 = tested on: SK-MEL-5
SK-OV-3 = tested on: SK-OV-3
SN12C = tested on: SN12C
SNB-19 = tested on: SNB-19
SNB-75 = tested on: SNB-75
SNB-78 = tested on: SNB-78
SR = tested on: SR
SW-620 = tested on: SW-620
TK-10 = tested on: TK-10
U-251 = tested on: U-251
UACC-257 = tested on: UACC-257
UACC-62 = tested on: UACC-62
UO-31 = tested on: UO-31
XF498 = tested on: XF498
HCT-15 = tested on: HCT-15
NCI-H460 = tested on: NCI-H460
RPMI-8226 = tested on: RPMI-8226

## CC1=CC=C2C(C)(C)CC[C@@H]3OC(=O)[C@H]1[C@]23C
786-0
  GI50: > 100 µM (inactive)
A498
  GI50: > 100 µM (inactive)
A549
  GI50: > 100 µM (inactive)
ACHN
  GI50: > 100 µM (inactive)
CAKI-1
  GI50: > 100 µM (inactive)
CCRF-CEM
  GI50: > 100 µM (inactive)
COLO 205
  GI50: > 100 µM (inactive)
DLD-1
  GI50: > 100 µM (inactive)
DMS-114
  GI50: > 100 µM (inactive)
DMS-273
  GI50: > 100 µM (inactive)
EKVX
  GI50: > 100 µM (inactive)
HCC 2998
  GI50: > 100 µM (inactive)
HCT-116
  GI50: > 100 µM (inactive)
HL-60
  GI50: > 100 µM (inactive)
HOP-18
  GI50: > 100 µM (inactive)
HOP-62
  GI50: > 100 µM (inactive)
HOP-92
  GI50: > 100 µM (inactive)
HT-29
  GI50: > 100 µM (inactive)
IGROV-1
  GI50: > 100 µM (inactive)
K562
  GI50: > 100 µM (inactive)
KM-20L2
  GI50: > 100 µM (inactive)
KM12
  GI50: > 100 µM (inactive)
LOX IMVI
  GI50: > 100 µM (inactive)
LXFL 529
  GI50: > 100 µM (inactive)
M14
  GI50: > 100 µM (inactive)
M19-MEL
  GI50: > 100 µM (inactive)
MOLT-4
  GI50: > 100 µM (inactive)
Malme-3M
  GI50: > 100 µM (inactive)
NCI-H226
  GI50: > 100 µM (inactive)
NCI-H23
  GI50: > 100 µM (inactive)
NCI-H522
  GI50: > 100 µM (inactive)
OVCAR-3
  GI50: > 100 µM (inactive)
OVCAR-4
  GI50: > 100 µM (inactive)
OVCAR-5
  GI50: > 100 µM (inactive)
OVCAR-8
  GI50: > 100 µM (inactive)
RXF 393
  GI50: > 100 µM (inactive)
RXF 631
  GI50: > 100 µM (inactive)
SF-268
  GI50: > 100 µM (inactive)
SF-295
  GI50: > 100 µM (inactive)
SF-539
  GI50: > 100 µM (inactive)
SK-MEL-28
  GI50: > 100 µM (inactive)
SK-MEL-2
  GI50: 15.5 µM (inactive)
SK-MEL-5
  GI50: > 100 µM (inactive)
SK-OV-3
  GI50: > 100 µM (inactive)
SN12C
  GI50: > 100 µM (inactive)
SNB-19
  GI50: > 100 µM (inactive)
SNB-75
  GI50: > 100 µM (inactive)
SNB-78
  GI50: 37.1 µM (inactive)
SR
  GI50: > 100 µM (inactive)
SW-620
  GI50: > 100 µM (inactive)
TK-10
  GI50: > 100 µM (inactive)
U-251
  GI50: > 100 µM (inactive)
UACC-257
  GI50: > 100 µM (inactive)
UACC-62
  GI50: > 100 µM (inactive)
UO-31
  GI50: > 100 µM (inactive)
XF498
  GI50: > 100 µM (inactive)

## CCC1(C(=O)OC)CCc2c(OC)ccc(OC)c2C1=O (stereo not given)
786-0
  GI50: > 100 µM (inactive)
A498
  GI50: > 100 µM (inactive)
A549
  GI50: > 100 µM (inactive)
ACHN
  GI50: > 100 µM (inactive)
CAKI-1
  GI50: > 100 µM (inactive)
CCRF-CEM
  GI50: > 100 µM (inactive)
COLO 205
  GI50: > 100 µM (inactive)
DLD-1
  GI50: > 100 µM (inactive)
DMS-114
  GI50: > 100 µM (inactive)
DMS-273
  GI50: > 100 µM (inactive)
EKVX
  GI50: > 100 µM (inactive)
HCC 2998
  GI50: > 100 µM (inactive)
HCT-116
  GI50: > 100 µM (inactive)
HCT-15
  GI50: > 100 µM
HL-60
  GI50: > 100 µM (inactive)
HOP-18
  GI50: > 100 µM (inactive)
HOP-62
  GI50: > 100 µM (inactive)
HT-29
  GI50: > 100 µM (inactive)
IGROV-1
  GI50: > 100 µM (inactive)
K562
  GI50: > 100 µM (inactive)
KM-20L2
  GI50: > 100 µM (inactive)
KM12
  GI50: > 100 µM (inactive)
LOX IMVI
  GI50: > 100 µM (inactive)
LXFL 529
  GI50: > 100 µM (inactive)
M14
  GI50: > 100 µM (inactive)
M19-MEL
  GI50: > 100 µM (inactive)
MOLT-4
  GI50: > 100 µM (inactive)
Malme-3M
  GI50: > 100 µM (inactive)
NCI-H23
  GI50: > 100 µM (inactive)
NCI-H460
  GI50: > 100 µM (inactive)
NCI-H522
  GI50: > 100 µM (inactive)
OVCAR-3
  GI50: > 100 µM (inactive)
OVCAR-4
  GI50: > 100 µM (inactive)
OVCAR-5
  GI50: > 100 µM (inactive)
OVCAR-8
  GI50: > 100 µM (inactive)
RPMI-8226
  GI50: > 100 µM (inactive)
RXF 631
  GI50: > 100 µM (inactive)
SF-268
  GI50: > 100 µM (inactive)
SF-295
  GI50: > 100 µM (inactive)
SF-539
  GI50: > 100 µM (inactive)
SK-MEL-28
  GI50: > 100 µM (inactive)
SK-MEL-2
  GI50: > 100 µM (inactive)
SK-MEL-5
  GI50: > 100 µM (inactive)
SK-OV-3
  GI50: > 100 µM (inactive)
SN12C
  GI50: > 100 µM (inactive)
SNB-19
  GI50: > 100 µM (inactive)
SNB-78
  GI50: > 100 µM (inactive)
SW-620
  GI50: > 100 µM (inactive)
TK-10
  GI50: > 100 µM (inactive)
U-251
  GI50: > 100 µM (inactive)
UACC-257
  GI50: > 100 µM (inactive)
UACC-62
  GI50: > 100 µM (inactive)
UO-31
  GI50: > 100 µM (inactive)
XF498
  GI50: > 100 µM (inactive)
